# According to US20030091589A1, “Methods and compositions for control of coccidiosis” (priority 2001, published 2003):
# Marks after values point to notes of the source that are not given here.
# Assays:
# Eimeria spp. [1] = assay: 42-day trials, growth of broiler chicks reared on Eimeria-infected recycled litter (Example 6); format: in vivo, Cornish Rock male broiler chicks; conditions: AVATEC 90.7 g/ton, Bacitracin Zn 50 g/t, BIO-MOS 0.5 kg/tonne
# Description: Three 42-day trials were conducted to evaluate the effects of AVATEC (lasalocid, Alpharma, Fort Lee, N.J.), an anticoccidial ionophore (90.7 g/ton); Bacitracin Zn, (50 g/t), and BIO-MOS® (0.5 kg/tonne) on the growth of broiler chicks reared on recycled litter. Sixty (day-old) Cornish Rock male broiler chicks were put into each of four treatment groups (replicated three times) consisting of the following: 1) Control (untreated birds); 2) BIO-MOS® treated, 3) AVATEC treated, and 4) Bacitracin ZN treated. Pine wood shavings on which broilers infected with E. tenella, E. maxima, and E. acervulina had been grown were used as recycled litter for the trials. Pens containing this recycled litter were assigned to the four treatment groups prior to commencement of the trial, and day old chicks were introduced for each of the three subsequent trials with the same recycled litter.
# Diets consisted of mainly corn-soy supplemented with necessary vitamins and minerals to satisfy 1994 National Research Council requirements. Weekly body weights were measured. […] Mean body weight averages of chicks in all treatments decreased with each cycle of litter re-use due to infection.
# E. maxima = assay: 28-day trial, broiler chicks challenged with E. maxima (Example 2); format: in vivo, Cornish Rock male broiler chicks
# Description: A 28-day trial with 360 Cornish Rock male broiler chicks was conducted to investigate the effects of two medicated feeds on the suppression of E. maxima infection. Thirty day-old chicks per treatment group were housed in battery cages and fed a standard soya corn diet containing Monensin ([…]) or a commercially available yeast cell-derived composition containing yeast cell wall material and mannanoligosaccharide (BIO-MOS®) (1 kg/tonne). The four experimental groups included: 1) negative control (unmedicated, unchallenged); 2) positive control (unmedicated, challenged); 3) Monensin treated, challenged, and 4) BIO-MOS® treated, challenged. Birds were assigned to treatments and replicate pens as described in Example 1. At 14 days of age, chicks were infected orally by gavage with E. maxima (50,000 oocysts/bird). The response variables measured included weekly body weight gain and cecal lesion scores. Such measurements were subjected to analysis of variance as described in Example 1.
# E. tenella = assay: 28-day trial, broiler chicks challenged with E. tenella (Example 1); format: in vivo, Cornish Rock male broiler chicks
# Description: A 28-day trial with 360 Cornish Rock male broiler chicks was conducted to investigate the effects of two medicated feeds on the suppression of detrimental effects of E. tenella (See Tables I & II).
# Day-old chicks were fed standard corn soya diets containing Monensin ([…]) or a yeast cell wall/mannanoligosaccharide-containing composition (BIO-MOS®, Alltech, Inc., Nicholasville, Ky.) (1 kg/tonne). The experimental groups included: 1) negative control (unmedicated, unchallenged); 2) positive control (untreated, challenged); 3) Monensin-treated, challenged and 4) BIO-MOS®-treated, challenged. Birds were randomly assigned to three replicate pens in each treatment group. At 14 days of age, chicks were infected orally by gavage with E. tenella (50,000 oocysts/bird). The response variables measured included weekly body weight gain and cecal lesion scores as described (Johnson and Reid. 1970 “Anticoccidial Drugs: Lesion Scoring Technique in Battery and Floor Pen Experiments with Chickens.” Exp. Parasitol. 28:30-36). Treatment differences were evaluated by using the LSD procedure with the General Linear Models Procedure (SAS Institute, 1985, Cary, N.C.) using pens as the experimental units. The model statement included only treatment effects. When significance differences (P<0.05) were observed, the least significant differences (LSD) procedures was applied to test for the differences among treatments.
# Eimeria spp. [2] = assay: 20-day battery trial, chicks challenged with sporulated Eimeria species (Example 5); format: in vivo, broiler chicks (Cobb)
# Description: A 20-day battery trial was conducted to determine the anticoccidial activity of a BIO-MOS® in broiler chicks (Cobb) challenged with sporulated Eimeria species. One hundred sixty chicks (day old) were housed in battery cages (10 chicks per cage, 459 sq.cm/bird). There were 4 replicated cages per treatment. A standard soya corn diet was provided with water ad libitum. Treatment groups were the following: 1) Negative control (non-medicated, unchallenged); 2) Positive control (non-medicated and challenged; 3) BIO-MOS®, 1 kg/tonne (challenged); and 4) Salinomycin, 60 g/tonne (challenged).
# The challenge inoculum was provided at 14 days of age and contained respectively, 50,000 E. acervulina, 5,000 E. maxima or 40,000 E. tenella oocysts administered by oral gavage. Body weights and feed consumption were measured at 0, 14 and 20 days of age.
# Six days post infection all birds were sacrificed and lesion scored, using the method of Johnson and Reid supra. Lesion scores were evaluated in the upper (E. acervulina), middle (E. maxima), and cecal (E. tenella) regions of the intestine.
# Eimeria spp. [3] = assay: 20-day battery trial, chicks challenged with sporulated Eimeria species (Example 4); format: in vivo, broiler chicks (Cobb)
# Description: A 20-day battery trial was conducted to determine the anticoccidial activity of a yeast cell composition in broiler chicks (Cobb) challenged with sporulated Eimeria species. One hundred sixty chicks (day old) were housed in battery cages (10 chicks per cage, 459 sq. cm/bird). There were four replicated cages per treatment. A standard corn soya diet was provided with water ad libitum. Treatment groups were the following: (1) Negative control (non-medicated, unchallenged); 2) positive control (non-medicated, challenged; 3) BIO-MOS®, 1 kg/tonne (challenged); and 4) Salinomycin, 60 g/tonne (challenged).
# The challenge inoculum was provided at 14 days of age and contained 50,000 E. acervulina, 5,000 E. maxima or 40,000 E. tenella oocysts, respectively, administered by oral gavage. Body weights and feed consumption were measured at 9, 14 and 20 days of age. Six days post-infection all birds were sacrificed and lesion scored using the method of Johnson and Reid (1970) supra. Lesion scores were evaluated in the upper (E. acervulina), middle (E. maxima), and cecal (E. tenella) regions of the intestine.
# E. acervulina = assay: 28-day trial, broiler chicks challenged with E. acervulina (Example 3); format: in vivo, Cornish Rock male broiler chicks
# Description: A 28-day trial with 360 Cornish Rock male broiler chicks was conducted to investigate the effects of two medicated feeds on the suppression of detrimental effects of E. acervulina.
# Day-old chicks were fed a standard corn soya diet containing Salinomycin (6 mg/kg) or BIO-MOS® (1 kg/tonne). The four experimental groups were: 1) negative control, unmedicated, unchallenged; 2) Salinomycin-treated, challenged, 3) BIO-MOS®-treated, challenged and 4)BIO-MOS® treated, unchallenged. Birds were randomly assigned to three replicate pens in each treatment group. At 14 days of age, chicks were infected orally by gavage with E. acervulina (500,000 oocysts/bird). The response variables measured included weekly body weight gain and cecal lesion scores. Data were subjected to ANOVA using the General Linear Model procedure (SAS Institute, Cary, N.C.) as described in Example 1.
# [4] = Eimeria spp. infected, BIO-MOS 1 kg/t, Salinomycin 60 g/t
# [5] = post-challenge period, BIO-MOS 1 kg/t, Salinomycin 60 g/t
# [6] = post-challenge weight gain versus unchallenged control
# [7] = pre-challenge period, BIO-MOS 1 kg/t, Salinomycin 60 g/t
# [8] = whole trial, BIO-MOS 1 kg/t, Salinomycin 60 g/t
structure (smiles),measurement,setting,value
"CC[C@@H](C(=O)[C@@H](C)[C@@H](O)[C@H](C)CCc1ccc(C)c(O)c1C(=O)O)[C@H]1O[C@](CC)([C@H]2CC[C@](O)(CC)[C@H](C)O2)C[C@@H]1C [AVATEC, lasalocid]","Body Weight, Trial 1",Eimeria spp. [1]; 42-day trial 1 on recycled litter,2271^a Grams
same,"Body Weight, Trial 2",Eimeria spp. [1]; 42-day trial 2 on same recycled litter,1863^b Grams
same,"Body Weight, Trial 3",Eimeria spp. [1]; 42-day trial 3 on same recycled litter,1760^ab Grams
CC[C@@]1([C@@H]2O[C@@H]([C@H]3O[C@@](O)(CO)[C@H](C)C[C@@H]3C)C[C@@H]2C)CC[C@H]([C@]2(C)CC[C@]3(C[C@H](O)[C@@H](C)[C@@H]([C@@H](C)[C@@H](OC)[C@H](C)C(=O)O)O3)O2)O1 [Monensin],"Average Weight Gain, Mean","E. maxima; E. maxima infected, 2-4 weeks after challenge, mean of 3 replications",536
same,"Average Weight Gain, Replication 1","E. maxima; E. maxima infected, 2-4 weeks after challenge, replicate pen 1",598
same,"Average Weight Gain, Replication 2","E. maxima; E. maxima infected, 2-4 weeks after challenge, replicate pen 2",412
same,"Average Weight Gain, Replication 3","E. maxima; E. maxima infected, 2-4 weeks after challenge, replicate pen 3",599
same,reduction of average cecal lesion scores,"E. maxima; E. maxima infection, versus positive control",21%
same,Cecal Lesion Scores,"E. maxima; chicks challenged with E. maxima 50,000 oocysts/bird at 14 days, Monensin 60 g/kg or BIO-MOS 1 kg/tonne in feed",0.93^b
same,"Average Weight Gain, Mean","E. tenella; E. tenella infected, weeks 2-4 after challenge, mean of 3 replications",544 Grams
same,"Average Weight Gain, Replication 1","E. tenella; E. tenella infected, weeks 2-4 after challenge, replicate pen 1",498 Grams
same,"Average Weight Gain, Replication 2","E. tenella; E. tenella infected, weeks 2-4 after challenge, replicate pen 2",611 Grams
same,"Average Weight Gain, Replication 3","E. tenella; E. tenella infected, weeks 2-4 after challenge, replicate pen 3",523 Grams
same,Cecal Lesion Scores,"E. tenella; chicks infected with E. tenella 50,000 oocysts/bird at 14 days, Monensin 60 g/kg or BIO-MOS 1 kg/tonne in feed",1.50^b
same,improvements in weight gain relative to E. tenella-challenged control,E. tenella; standard Monensin treatment,not seen
same,severity of the E. tenella infections as measured by cecal lesion scores,E. tenella; versus untreated challenged control,significantly (P<0.05) reduced
CC[C@@H](C(=O)[C@@H](C)[C@@H](O)[C@H](C)[C@@H]1O[C@@H]([C@@H](CC)C(=O)O)CC[C@@H]1C)[C@H]1O[C@]2(C=C[C@@H](O)[C@]3(CC[C@@](C)([C@H]4CC[C@](O)(CC)[C@H](C)O4)O3)O2)[C@H](C)C[C@@H]1C [Salinomycin],lesion scores versus the positive control in all regions of the gut,Eimeria spp. [2]; Eimeria spp. challenge,significantly lower lesion scores
same,Feed Conv.,Eimeria spp. [2]; [4],1.675^a
same,"Average Cecal Lesion Scores, Ceca","Eimeria spp. [2]; cecal region (E. tenella), six days post infection, BioMos 1 kg/t, Salinomycin 60 g/t",1.2^b
same,"Average Cecal Lesion Scores, Mid","Eimeria spp. [2]; middle intestine (E. maxima), six days post infection, BioMos 1 kg/t, Salinomycin 60 g/t",0.7^b
same,Avg. Live Wt. Gain Day 14-20,Eimeria spp. [2]; [5],0.243^ab kg
same,% Wt. Gain Reduction,Eimeria spp. [2]; [6],8.90%
same,Avg. Live Wt. Gain Day 0-14,Eimeria spp. [2]; [7],0.262^a kg
same,"Average Cecal Lesion Scores, Total","Eimeria spp. [2]; total of regions, six days post infection, BioMos 1 kg/t, Salinomycin 60 g/t",2.7^ab
same,"Average Cecal Lesion Scores, Upper","Eimeria spp. [2]; upper intestine (E. acervulina), six days post infection, BioMos 1 kg/t, Salinomycin 60 g/t",0.8^b
same,Avg. Live Wt. Gain Day 0-20,Eimeria spp. [2]; [8],0.504^ab kg
same,lesion scores compared to control groups in the upper and mid intestine regions,Eimeria spp. [3]; Eimeria spp. challenge,significantly reduced (P<0.05)
same,Feed Conv.,Eimeria spp. [3]; [4],1.511^b
same,"Average Cecal Lesion Scores, Ceca","Eimeria spp. [3]; cecal region (E. tenella), six days post-infection, BioMos 1 kg/t, Salinomycin 60 g/t",0.6^c
same,"Average Cecal Lesion Scores, Mid","Eimeria spp. [3]; middle intestine (E. maxima), six days post-infection, BioMos 1 kg/t, Salinomycin 60 g/t",0.8^c
same,Avg. Live Wt. Gain Day 14-20,Eimeria spp. [3]; [5],0.314^a kg
same,% Wt. Gain Reduction,Eimeria spp. [3]; [6],−0.41%
same,Avg. Live Wt. Gain Day 0-14,Eimeria spp. [3]; [7],0.634^a kg
same,"Average Cecal Lesion Scores, Total","Eimeria spp. [3]; total of regions, six days post-infection, BioMos 1 kg/t, Salinomycin 60 g/t",2.7^c
same,"Average Cecal Lesion Scores, Upper","Eimeria spp. [3]; upper intestine (E. acervulina), six days post-infection, BioMos 1 kg/t, Salinomycin 60 g/t",1.3^c
same,Avg. Live Wt. Gain Day 0-20,Eimeria spp. [3]; [8],0.634^a kg
same,Body Weight Gain Post-Infection Week 3,E. acervulina; Challenge: Yes (E. acervulina),350^a grams
same,Body Weight Gain Post-Infection Week 4,E. acervulina; Challenge: Yes (E. acervulina),607^ab grams
same,Body Weight Pre-Infection Week 2,E. acervulina; Challenge: Yes (E. acervulina),236^a grams
same,reduction of severity of cecal lesions (cecal lesion scores),"E. acervulina; E. acervulina challenge, versus positive control",57%
same,Cecal Lesion Scores,"E. acervulina; chicks challenged with E. acervulina 500,000 oocysts/bird at 14 days, Salinomycin 6 mg/kg or BIO-MOS 1 kg/tonne in feed",0.92^bc
